Reference: patent publication US6495551B1, “Substituted phenyloxazolidinones and their use as antibiotics” (priority 1997, dated 2002)
In brackets after ≈: the same amount, converted by molar mass.

How the values were obtained:
Experiment in all cases: MIC by agar-dilution, standard in vitro test system
Assay type in all cases: cell-based
Details in all cases: IsoSensitest agar, inoculum 10^4 CFU/spot, 37° C. for 24 hours
[1] = system: Staphylococcus aureus MRQR (methicillin resistant quinolone resistant)
Procedure: (§1) The following results were obtained on a standard in vitro test system. The activity is described in terms of the minimum inhibitory concentration (MIC) determined by the agar-dilution technique with an inoculum size of 10^4 CFU/spot.
(§2) The organisms were tested on a standard semi-defined susceptability test medium (IsoSensitest agar), using an inoculum of 10^4 CFU/spot and an incubation temperature of 37° C. for 24 hours.
MRQR=methicillin resistant quinolone resistant

[2] = system: Staphylococcus aureus Novb. Res (Novobiocin resistant)
Procedure: as §1, §2
Novb. Res=Novobiocin resistant

Bacillus subtilis = system: Bacillus subtilis
Procedure: as §1, with “CFU/spot. The organisms were tested on a standard semi-defined susceptability test medium (IsoSensitest agar), using an inoculum of 10^4 CFU/spot and an incubation temperature of 37° C. for 24 hours.” for “CFU/spot.”

[3] = system: Staphylococcus aureus Oxford
Procedure: as §1, with “CFU/spot. The organisms were tested on a standard semi-defined susceptability test medium (IsoSensitest agar), using an inoculum of 10^4 CFU/spot and an incubation temperature of 37° C. for 24 hours.” for “CFU/spot.”

[4] = system: Streptococcus pyogenes C203
Procedure: as §1, with “CFU/spot. The organisms were tested on a standard semi-defined susceptability test medium (IsoSensitest agar), using an inoculum of 10^4 CFU/spot and an incubation temperature of 37° C. for 24 hours.” for “CFU/spot.”

[5] = system: Coagulase Negative Staphylococcus MS
Procedure: as §1, with “CFU/spot. The organisms were tested on a standard semi-defined susceptability test medium (IsoSensitest agar), using an inoculum of 10^4 CFU/spot and an incubation temperature of 37° C. for 24 hours.” for “CFU/spot.”

Enterococcus faecalis = system: Enterococcus faecalis
Procedure: as §1, with “CFU/spot. The organisms were tested on a standard semi-defined susceptability test medium (IsoSensitest agar), using an inoculum of 10^4 CFU/spot and an incubation temperature of 37° C. for 24 hours.” for “CFU/spot.”

[6] = system: Coagulase Negative Staphylococcus MR (methicillin resistant)
Procedure: as §1, §2

MIC [1]: 1 µg/mL (≈ 2.25 µM) | MIC [2]: 0.25 µg/mL (≈ 0.562 µM) | MIC (Bacillus subtilis): 0.25 µg/mL (≈ 0.562 µM) | MIC [3]: 0.125 µg/mL (≈ 0.281 µM) | MIC [4]: 0.125 µg/mL (≈ 0.281 µM) | MIC [5]: 0.06 µg/mL (≈ 0.135 µM) | MIC (Enterococcus faecalis): 0.5 µg/mL (≈ 1.12 µM) | MIC [6]: 0.25 µg/mL (≈ 0.562 µM)
Compound: CC(=O)NC[C@H]1CN(c2ccc(-n3cnc(C(=O)Nc4nccs4)c3)c(F)c2)C(=O)O1 [Example 43, N-[(5S)-3-(3-Fluoro-4-(4-(thiazol-2-ylaminocarbonyl)imidazol-1-yl)phenyl)-2-oxooxazolidin-5-ylmethyl]acetamide]
